Measurements from publication PMC8391236, “Effect of Pterostilbene, a Natural Derivative of Resveratrol, in the Treatment of Colorectal Cancer through Top1/Tdp1-Mediated DNA Repair Pathway” (Cancers, 2021).

Experiments:
[1] = tested on: CL187; assay: Cell viability assay (CCK-8); format: cell-based, Human
Experimental: (§1) PTE or RE were dissolved in DMSO and diluted with culture medium to 1–100 μM. The final concentration of DMSO was less than 0.1%, and 0.1% DMSO as negative control. CPT, as Top1 inhibitor, was diluted to 0.5 μM [36, 37], and FM, as Tdp1 inhibitor was diluted to 25 μM [38]. Exponentially growing cells were seeded in 96-well plates (5 × 10^3 cells/well) for 12 h. Various drugs were added separately and incubated for 24, 48, and 72 h. Cell viability was determined by CCK-8 (Beyotime Biotechnology, Shanghai, China) assay. […]
(§2) The drug concentration required for inhibiting cell proliferation by 50% (IC50) was determined by interpolation from dose-response curves.

[2] = tested on: COLO205; assay: Cell viability assay (CCK-8); format: cell-based, Human
Experimental: as §1, §2

[3] = tested on: HCT-116; assay: Cell viability assay (CCK-8); format: cell-based, Human
Experimental: as §1, §2

[4] = tested on: HCT-8; assay: Cell viability assay (CCK-8); format: cell-based, Human
Experimental: as §1, §2

[5] = tested on: LoVo; assay: Cell viability assay (CCK-8); format: cell-based, Human
Experimental: as §1, §2

[6] = tested on: SW480; assay: Cell viability assay (CCK-8); format: cell-based; details: Homo sapiens
Experimental: as §1, §2

[7] = tested on: Tdp1-over CL187 cells; assay: Cell viability of Tdp1-overexpressing cells; format: cell-based, Human
Experimental: CL187 cells were cultured on 6-cm dishes at 37 °C for 24 h. The plasmid (2.5 μg) was diluted with 125 μL serum-free medium Opti-MEM, mixed gently, and incubated at room temperature for 5 min. Lipo 3000 (Invitrogen, Waltham, MA, USA) were diluted with 125 μL serum-free medium Opti-MEM, mixed and incubated for 5 min. Mixed the plasmid and Lipo 3000, incubated at room temperature for 20 min, the mixture was added to CL187 cells, the Tdp1 overexpressed plasmid were transfected into CL187 cells.
PTE or RE were dissolved in DMSO and diluted with culture medium to 1–100 μM. The final concentration of DMSO was less than 0.1%, and 0.1% DMSO as negative control. CPT, as Top1 inhibitor, was diluted to 0.5 μM [36, 37], and FM, as Tdp1 inhibitor was diluted to 25 μM [38]. Exponentially growing cells were seeded in 96-well plates (5 × 10^3 cells/well) for 12 h. […] Cell viability was determined by CCK-8 (Beyotime Biotechnology, Shanghai, China) assay. Cell viability and inhibition rate were calculated with the following formulae:Cell viability (%) = [OD450 (sample)/OD450 (control)] × 100(1) Inhibition rate (%) = […] − cell viability (%)(2)
as §2

[8] = tested on: siRNA-Top1 CL187 cells; assay: Apoptosis by flow cytometry; format: cell-based, Human; details: 48 h
Experimental: Exponentially growing CL187 cells were seeded in 6-well plates (1.2 × 10^6 cells/well) until a well was filled with cells. The RE or PTE at various concentrations were added separately into plate wells and incubated with cells for 48 h. The incubated cells were collected and treated by Annexin V-FITC/PI Apoptosis Detection Kit. The stained cells were analyzed with a flow cytometer (Becton-Dickinson, Franklin Lakes, NJ, USA), and data analyses were performed with BD Cell Quest^TM pro 6.0..

[9] = tested on: Top1 in CL187 cells; assay: Intracellular Top1 enzyme activity assay; format: cell-based, Human; details: CL187 cells treated 6 h
Experimental: CL187 cells were treated with different concentrations of drugs for 6 h. The supernatant was discarded, and the cells were collected. The extracts of cytoplasm, mitochondria, and nucleus were obtained by the same method as described in Section 2.4.7. The protein concentration of each extract was detected by BCA kit. Enzyme activity reaction was carried out by using 125 ng super helical DNA (pHOT-1) and cell extract. The protein concentration of the extract was guaranteed to be the same in each group. The mixture solution of the pHOT-1 and the cell extract was added into the reaction buffer and incubated for 30 min at 37 °C. The reaction was terminated with loading buffer. The agarose gel electrophoresis was performed, and the images were collected.

[10] = tested on: liver, kidney, lung, and paracancerous colon tissues; assay: HE staining of organs of orthotopic xenograft mice; format: in vivo; details: orthotopic xenograft nude mice
Experimental: The mice were anaesthetized with 10% chloral hydrate and fixed on the operating table. After the abdomen of the mice was disinfected with iodine, a small section of the large intestine was squeezed out of the surgical opening. The 0.1 mL (per mouse) CL187 cell suspension (1 × 10^7 /mL) was inoculated into the colon wall of nude mice. After the inoculation, the large intestine was placed into the mouse abdominal cavity. After the wound was sutured, the mice were put into cages until they naturally woke up. After 10 days of inoculation, the animals were randomly divided into 4 groups (6 mice per group). Vector control group was intraperitoneally injected with 5% DMSO and 95% saline containing 30% HP-β-CD (i.p.). The drug dosage was designed according to the results of the previous pharmacokinetic experiment. Experimental Group 1 was intraperitoneal injected (i.p.) with PTE 100 mg/kg, and experiment Group 2 was intragastric administrated (i.g.) with PTE 500 mg/kg, once a day. The bioavailability of PTE was the same in the animals in the above regimens. Positive control group was injected with irinotecan, 20 mg/kg, twice a week. During the experiment, the changes of body weight of nude mice were recorded. After 21 days, the nude mice were sacrificed, the tumor blocks were removed surgically, weighed, and recorded. Tumor and organ tissues were paraffin-embedded and sectioned into […] after being fixed in 4% of paraformaldehyde solution for 24 h. The sections were deparaffinized and rehydrated before detection. For histological observation, tumor sections were stained with hematoxylin and eosin (HE), and then observed by an inverted microscopy (Olympus, Japan).

[11] = tested on: siRNA-Top1 CL187 cells; assay: Cell viability of Top1-silenced cells; format: cell-based; details: Homo sapiens, 36 h, siRNA-Top1 CL187, 36 h

IC50 ([2]; COLO205, 72 h): < 30 µM
IC50 ([2]; COLO205, 72 h, listed as Pterostilbene): 13.6 ± 6.1 µM
IC50 ([2]; Homo sapiens, COLO 205, 24 h, COLO205, 24 h): 44.4 ± 16.7 µM
IC50 ([2]; Homo sapiens, COLO 205, 48 h, COLO205, 48 h): 24.5 ± 9.13 µM
IC50 ([3]; HCT-116, 72 h, listed as Pterostilbene): 21.4 ± 6.79 µM
IC50 ([3]; Homo sapiens, HCT-116, 24 h): 31.2 ± 10.2 µM
IC50 ([3]; Homo sapiens, HCT-116, 48 h): 15.4 ± 4.49 µM
IC50 ([3]; Homo sapiens, HCT-116, 72 h): < 30 µM
IC50 ([4]; HCT-8, 72 h, listed as Pterostilbene): 25 ± 6.62 µM
IC50 ([4]; Homo sapiens, HCT-8, 24 h): 29.9 ± 10.6 µM
IC50 ([4]; Homo sapiens, HCT-8, 48 h): 25.4 ± 8.25 µM
IC50 ([4]; Homo sapiens, HCT-8, 72 h): < 30 µM
IC50 ([5]; 72 h): < 30 µM
IC50 ([5]; 72 h, listed as Pterostilbene): 12 ± 4.01 µM
IC50 ([5]; Homo sapiens, 24 h): 106 ± 28.6 µM
IC50 ([5]; Homo sapiens, 48 h): 14.2 ± 4.84 µM
IC50 ([6]; SW480, 24 h): 113 ± 24 µM
IC50 ([6]; SW480, 48 h): 35.7 ± 9.32 µM
IC50 ([6]; SW480, 72 h): 40.5 ± 10.8 µM
SMILES: COc1cc(/C=C/c2ccc(O)cc2)cc(OC)c1 [PTE, 3,5-dimethoxy-4′-hydroxy-trans-stilbene]
IC50 ([1]; CL187, 72 h): < 30 µM
IC50 ([1]; CL187, 72 h, listed as Pterostilbene): 14.4 ± 2.93 µM
IC50 ([1]; Homo sapiens, 24 h, CL187, 24 h): 24.2 ± 11.6 µM
IC50 ([1]; Homo sapiens, 48 h, CL187, 48 h): 13.8 ± 4.7 µM
IC50 ([7]; Homo sapiens, 24 h, Tdp1-over CL187, 24 h): 63 ± 13.6 µM
IC50 ([7]; Homo sapiens, 36 h, Tdp1-over CL187, 36 h): 41.1 ± 7.22 µM
IC50 ([7]; Homo sapiens, 48 h, Tdp1-over CL187, 48 h): 20.3 ± 3.13 µM
IC50 ([7]; Homo sapiens, 72 h, Tdp1-over CL187, 72 h): 19.1 ± 4.08 µM
IC50 ([7]; Tdp1-over CL187, 72 h): ~20 µM
cell apoptotic proportion ([8]; siRNA-Top1 CL187, 10 μM): 25.29%
cell apoptotic proportion ([8]; siRNA-Top1 CL187, 20 μM): 29.42%
cell apoptotic proportion ([8]; siRNA-Top1 CL187, 50 μM): 33.93%
concentration with the same inhibitory effect on intracellular Top1 enzyme activity ([9]; cell extracts + SC DNA): 20 µM
Top1 enzyme activity in mitochondria ([9]; CPT at 50 μM): significantly inhibited
effect on lung inflammation (HE sections) [10]: no significant effect on lung inflammation
damage to the liver (HE sections) ([10]; treatment group vs solvent control): caused no additional damage
IC50 [11]: 49 ± 10.1 µM
